Where a name gives a salt, the structure may show the parent alone. Read-outs that look alike come from different tables or passages of the source.
How the values were obtained:
[1] = system: pS6K1 (p-p70 S6 Kinase (Thr389)) in MCF-7 cells; assay: AlphaLISA Ultra pS6K1 assay; type: cell-based; settings: 2 hours compound incubation
Experimental: Example 155: AlphaLISA Ultra pS6K1 assay
(§1) Assay Protocol: • 1. Seed MCF-7 cells in Corning 3701 plate and incubate for 20˜24 hour. 12,000˜16,000 cells will be seeded in 36 μL medium per well. • 2. Change the culture medium with fresh medium and incubate for another 2 hours. • 3. Add 12 μL (4×) compounds into the cell plate by HAMILTON. Final DMSO concentration is 0.5%. Incubate for 2 hours. • 4. Aspirate 38 μL by HAMILTON, 10 μL rest per well. • 5. Add 10 μL 2× lysis buffer using HAMILTON; total volume in wells is 20 μL. Allow cells to shake for 30 min. Cover plate by plastic foil and store plate at −80° C. up to analysis. • 6. Thaw cell lysate at RT and transfer 10 ul lysate to assay plate (Optiplate-384). • 7. Add 5 ul acceptor beads into assay plate and incubation for 2 hours • 8. Add 5 ul donor beads and incubation for 2 hours • 9. Count the plate by EnSpire Multimode Plate Reader

[2] = system: pAKT (p-Akt 1/2/3 (Ser473)) in MCF-7 cells; assay: AlphaLISA Ultra pAKT assay; type: cell-based
Experimental: Example 156: AlphaLISA Ultra pAKT Assay
as §1, with “1.” for “1. Seed”, “for 20-24” for “for 20˜24”, “hour. 16,000-20,000” for “hour. 12,000˜16,000”, “38 j L” for “38 μL”

[3] = 2 hours compound incubation, read-out: pAKT in MCF7: IC50
[4] = Homo sapiens, MCF7, 2 hours compound incubation

SMILES | IC50 ([1]; read-out: pS6K1 in MCF7: IC50) | IC50 [2, 3] | IC50 ([1]; Homo sapiens, MCF7, 2 h) | IC50 [2, 4]
Cc1cc(C)c(C(=O)N2CCN(c3ccccc3S(C)(=N)=O)CC2)cc1NC1CCN(c2ccccc2C#N)CC1 (single isomer, unassigned) [I-50, 2-(4-{[5-(4-{2-[(R or S)-imino(methyl)oxo-λ^6-sulfanyl]phenyl}piperazine-1-carbonyl)-2,4-dimethylphenyl]amino}piperidin-1-yl)benzonitrile] | 1000 to 3000 nM | > 10000 nM | – | –
Cc1cc(C)c(C(=O)N2CCN(c3ccccc3)[C@H](C(N)=O)C2)c(C)c1NC1CCN(c2cccnn2)CC1 [I-164, (2S)-1-Phenyl-4-(2,4,6-trimethyl-3-{[1-(pyridazin-3-yl)piperidin-4-yl]amino}benzoyl)piperazine-2-carboxamide] | – | – | 10 to 1000 nM | > 10000 nM
Cc1cc(C)c(C(=O)N2CCN(c3ccccc3)[C@H](CN)C2)c(C)c1NC1CCN(c2ccccc2C#N)CC1 [I-137, 2-[4-({3-[(3R)-3-(Aminomethyl)-4-phenylpiperazine-1-carbonyl]-2,4,6-trimethylphenyl}amino)piperidin-1-yl]benzonitrile] | – | – | 10 to 1000 nM | > 10000 nM
Cc1cc(C)c(C(=O)N2CCN(c3ccccc3)[C@H](C(N)=O)C2)c(C)c1NC1CCN(c2cnccn2)CC1 [I-150, (2S)-1-phenyl-4-(2,4,6-trimethyl-3-{[1-(pyrazin-2-yl)piperidin-4-yl]amino}benzoyl) piperazine-2-carboxamide] | – | – | 10 to 1000 nM | > 10000 nM
Cc1cc(C)c(C(=O)N2CCN(c3ccccc3)C(CN)C2)c(C)c1NC1CCN(c2ccccc2C#N)CC1 (stereo not drawn) [I-135, 2-[4-({3-[3-(Aminomethyl)-4-phenylpiperazine-1-carbonyl]-2,4,6-trimethylphenyl}amino)piperidin-1-yl]benzonitrile; bis(formic acid) salt] | – | – | 10 to 1000 nM | > 10000 nM
Cc1ccc(NC2CCN(c3ccccc3C#N)CC2)c(C)c1C(=O)N1CCN(c2cccc(F)c2S(N)(=O)=O)CC1 [I-87, 2-(4-(3-(1-(2-cyanophenyl)piperidin-4-ylamino)-2,6-dimethylbenzoyl)piperazin-1-yl)-6-fluorobenzenesulfonamide] | – | – | 1000 to 3000 nM | > 10000 nM
Cc1cc(C)c(C(=O)N2CCN(c3ccccn3)[C@H](CO)C2)c(C)c1NC1CCN(c2cnccn2)CC1 [I-149, [(2S)-1-(pyridin-2-yl)-4-(2,4,6-trimethyl-3-{[1-(pyrazin-2-yl)piperidin-4-yl]amino}benzoyl)piperazin-2-yl]MeOH] | – | – | 10 to 1000 nM | > 10000 nM
Cc1cc(C)c(C(=O)N2CCN(c3ccc(F)cc3S(N)(=O)=O)CC2)nc1NC1CCN(c2ccccc2C#N)CC1 [I-103, 2-(4-(6-(1-(2-cyanophenyl)piperidin-4-ylamino)-3,5-dimethylpicolinoyl)piperazin-1-yl)-5-fluorobenzenesulfonamide] | – | – | 1000 to 3000 nM | > 10000 nM
Cc1cc(C)c(C(=O)N2CCN(c3cccc(F)c3[S@](C)(=N)=O)C[C@@H]2C)c(C)c1NC1CCN(c2ccccc2C#N)CC1 [I-190, 2-(4-(3-((S)-4-(3-fluoro-2-((R)-S-methylsulfonimidoyl)phenyl)-2-methylpiperazine-1-carbonyl)-2,4,6-trimethylphenylamino)piperidin-1-yl)benzonitrile] | – | – | 10 to 1000 nM | > 10000 nM
CNC(=O)c1cccnc1N1CCN(C(=O)c2cc(NC3CCN(c4ccccc4C#N)CC3)c(C)cc2C)C[C@H]1C [I-123, (R)-2-(4-(5-(1-(2-Cyanophenyl)piperidin-4-ylamino)-2,4-dimethylbenzoyl)-2-methylpiperazin-1-yl)-N-methylnicotinamide] | – | – | 1000 to 3000 nM | > 10000 nM
Cc1cc(C)c(C(=O)N2CCN(c3ccccc3C#N)[C@@H](CO)C2)cc1NC1CCN(c2ccccc2C#N)CC1 [I-53] | – | – | 10 to 1000 nM | > 10000 nM
Cc1ccc(NC2CCN(c3ccccc3C#N)CC2)cc1C(=O)N1CCN(c2ccccc2)C(CO)C1 (single isomer, unassigned) [I-83, 2-[4-({3-[(3S or R)-3-(hydroxymethyl)-4-phenylpiperazine-1-carbonyl]-4-methylphenyl}amino)piperidin-1-yl]benzonitrile] | 10 to 1000 nM | > 10000 nM | – | –

From US10844013B2, “Phenyl amino piperidine mTORC inhibitors and uses thereof” (Navitor Pharmaceuticals, Inc., priority 2016, dated 2020)
